Patent publication US20250134855A1, “CO[…] AND METHODS OF USING SAME” (LYKOS THERAPEUTICS, INC., priority 2022, published 2025)

Experiments:
[1] = Population PK (PPK) model of MDMA and MDA (NONMEM); design: species or system human
Text: This example describes the methodology that was used to characterize the PPK of MDMA and its active minor metabolite MDA and the related model-based simulations.
For the PPK analysis, an individual was defined as evaluable if the following criteria were satisfied: • 1. Received at least one dose of MDMA • 2. Had at least one measurable MDMA observation with associated sampling time and dosing information for the MDMA modeling • 3. Had at least one measurable paired MDMA/MDA observation with associated sampling time and dosing information for the MDMA modeling
The evaluation of the impact of covariates on the MDMA and MDA PPK models focused on the most clinically relevant covariates. Prior to covariate selection, a correlation matrix was generated to determine the correlation between covariates. Only the most significant covariate among the highly correlated covariates was included in the model.
Software Nonlinear mixed-effects modeling software (NONMEM®; version 7.4; ICON, Hanover, MD, US), a software package for nonlinear mixed-effects analysis was used for the PPK modeling. R (version 4.0.2) was used for simulations (e.g., to derive exposure measures for subsequent model application analysis).
Algorithms for the Development of the Population PK Model Plasma concentration-time data was analyzed using a nonlinear mixed effects modeling approach. The first-order conditional estimation method of NONMEM with interaction (FOCE INTER) was used for PPK model development.
One-, and two-compartment models were evaluated for MDMA based on the shape of the observed concentration-time profile. MDMA absorption was evaluated in two ways: as a first-order process and as a sequential zero-order process followed by first-order absorption. MDA was developed as a sequential model, with one-, two, and three-compartment models tested.
They were modeled assuming a log-normal distribution as given by the following expression: θki=θk×e^ηk^i where θki denotes the k^th parameter value for the i^th patient, θk denotes the typical parameter value, and ηki denotes the inter-individual random effect for the i^th patient—assumed to have mean of 0 (zero) and variance ωk^2. Collectively, the vector of random effects (across the parameters indexed by k) has the covariance matrix Ω. Covariance matrix structures including diagonal and blocked diagonal structures were evaluated after the completion of covariate model building. The residual error structure was assumed to follow an additive, proportional, or combined additive and proportional error model described by the following:
The subset of covariate-parameter relationships to be included was selected based on exploratory graphical analysis, mechanistic plausibility, and scientific and clinical interest. […] This was either the covariate with the strongest influence as determined by exploratory graphical analysis or the variable that is most meaningful from a clinical, biological, or practical perspective. Continuous covariates were preferred over categorized covariates with the same meaning.
However, graphical covariate analysis can be relied on only if n-shrinkage in the respective population model parameters is low. Covariates that fulfilled the above criteria were tested in a stepwise process. The covariate selection was performed using a forward addition process followed by backward elimination. The likelihood ratio test was used to evaluate the significance of incorporating or removing fixed effects into the population model based on significance levels that were set a priori. For forward addition and backward elimination, significance levels of 0.01 and 0.001 were employed, respectively. The improvement of the model relative to the base model was compared after each of the covariates was added univariately, and the model with the largest improvement was kept for the next evaluation step, given that there was an overall statistical significance supporting the inclusion of the respective covariate. […]

male rats = assay: In vivo genotoxicity (micronucleated polychromatic erythrocytes), male rats; design: species or system rat; conditions: oral, doses up to 100 mg/kg day over two days
Text: No statistically significant differences in micronucleated polychromatic erythrocytes or bone marrow cytotoxicity were observed across all dose levels.

male and female rats = assay: Fertility study, male and female rats; type: in vivo, rat
Procedure: MDMA (0, 2.5, 5, and 10 mg/kg/day) was orally administered to male and female rats before mating. Males were dosed once daily for 28 days prior to pairing and dosing continued until euthanasia. Females were dosed once daily for 21 days prior to pairing and dosing continued though gestational day seven.

human plasma proteins = conditions: literature (Wan Aasim 2017); cited from earlier work
OAT3 = OAT3 (Homo sapiens, UniProt Q8TCC7); assay: Transporter inhibition, OAT3
OATP1B1 = OATP1B1 (Homo sapiens, UniProt Q9Y6L6); assay: Transporter inhibition, OATP1B1
OATP1B3 = OATP1B3 (Homo sapiens, UniProt Q9NPD5); assay: Transporter substrate assessment, OATP1B3
[2] = MPXF (N =16), population parameter, IIV not included
[3] = 5th percentile of body weight (52 kg)
[4] = 95th percentile of body weight (97 kg)

OAT3, sequence (Q8TCC7 whole entry): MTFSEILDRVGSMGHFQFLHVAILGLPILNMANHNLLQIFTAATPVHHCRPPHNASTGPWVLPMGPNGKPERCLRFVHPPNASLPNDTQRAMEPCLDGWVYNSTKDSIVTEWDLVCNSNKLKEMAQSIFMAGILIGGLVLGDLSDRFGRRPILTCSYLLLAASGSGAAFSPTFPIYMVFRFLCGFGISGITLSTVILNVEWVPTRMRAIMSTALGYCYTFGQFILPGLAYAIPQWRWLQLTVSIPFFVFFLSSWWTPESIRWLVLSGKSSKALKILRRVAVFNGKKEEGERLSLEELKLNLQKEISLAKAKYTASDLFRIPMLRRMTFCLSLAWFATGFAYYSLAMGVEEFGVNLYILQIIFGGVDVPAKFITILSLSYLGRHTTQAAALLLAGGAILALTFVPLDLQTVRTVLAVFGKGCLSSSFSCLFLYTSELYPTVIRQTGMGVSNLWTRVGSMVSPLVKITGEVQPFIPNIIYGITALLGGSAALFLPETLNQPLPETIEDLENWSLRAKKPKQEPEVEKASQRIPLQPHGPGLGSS
OATP1B3, sequence (Q9NPD5 whole entry): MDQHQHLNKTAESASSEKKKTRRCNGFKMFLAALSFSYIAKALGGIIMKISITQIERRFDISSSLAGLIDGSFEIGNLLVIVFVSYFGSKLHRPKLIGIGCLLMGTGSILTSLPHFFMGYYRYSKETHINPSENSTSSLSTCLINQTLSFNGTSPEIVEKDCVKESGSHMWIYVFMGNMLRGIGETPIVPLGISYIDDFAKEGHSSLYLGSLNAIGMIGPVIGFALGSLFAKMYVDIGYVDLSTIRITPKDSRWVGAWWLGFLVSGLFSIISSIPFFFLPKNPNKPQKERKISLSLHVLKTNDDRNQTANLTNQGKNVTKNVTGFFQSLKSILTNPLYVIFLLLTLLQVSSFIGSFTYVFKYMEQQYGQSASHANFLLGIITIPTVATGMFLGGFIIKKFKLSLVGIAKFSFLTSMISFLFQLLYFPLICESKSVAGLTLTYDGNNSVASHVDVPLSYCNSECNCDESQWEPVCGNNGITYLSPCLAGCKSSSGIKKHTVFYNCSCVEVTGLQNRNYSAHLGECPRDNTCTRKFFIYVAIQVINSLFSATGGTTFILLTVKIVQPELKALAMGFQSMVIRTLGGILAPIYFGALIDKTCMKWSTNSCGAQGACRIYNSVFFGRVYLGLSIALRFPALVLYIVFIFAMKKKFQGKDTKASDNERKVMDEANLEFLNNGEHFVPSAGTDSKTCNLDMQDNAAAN
OATP1B1, sequence (Q9Y6L6 whole entry): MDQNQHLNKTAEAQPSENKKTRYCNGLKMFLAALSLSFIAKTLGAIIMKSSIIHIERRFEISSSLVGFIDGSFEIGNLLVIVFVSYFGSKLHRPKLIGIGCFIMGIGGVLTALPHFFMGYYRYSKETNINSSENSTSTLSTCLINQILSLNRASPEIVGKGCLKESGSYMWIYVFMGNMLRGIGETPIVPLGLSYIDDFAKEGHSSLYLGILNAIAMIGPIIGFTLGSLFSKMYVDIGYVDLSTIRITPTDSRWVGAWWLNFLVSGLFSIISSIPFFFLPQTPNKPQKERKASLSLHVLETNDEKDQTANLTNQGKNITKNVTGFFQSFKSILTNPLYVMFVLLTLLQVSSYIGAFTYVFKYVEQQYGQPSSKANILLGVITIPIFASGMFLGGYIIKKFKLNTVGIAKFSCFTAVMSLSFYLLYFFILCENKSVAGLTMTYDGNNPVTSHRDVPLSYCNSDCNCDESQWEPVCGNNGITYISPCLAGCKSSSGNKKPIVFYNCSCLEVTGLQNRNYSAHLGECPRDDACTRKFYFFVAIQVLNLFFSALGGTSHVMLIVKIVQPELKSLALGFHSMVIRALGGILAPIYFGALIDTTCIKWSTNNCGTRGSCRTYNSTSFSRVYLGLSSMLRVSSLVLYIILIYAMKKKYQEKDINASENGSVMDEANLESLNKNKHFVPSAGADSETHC

CC(N)Cc1ccc2c(c1)OCO2 (centres unmarked) [MDA, 3,4-methylenedioxyamphetamine]
MDA Clearance, CLM, post hoc Geo. mean ([1]; MPXF (N =16)): 29.7 L/h | MDA Intercompartmental Clearance, QM, post hoc Geo. mean ([1]; MPXF (N =16)): 68.4 L/h | MDA Central Volume, V3 [1, 2]: 20.8 L | CLM, base model estimate ([1]; base MDA model): 35.6 L/h | IIV on CLM ([1]; base MDA model): 37.7 | IIV on QM ([1]; base MDA model): 55.8 | IIV on V4 ([1]; base MDA model): 43.5 | V3, base model estimate ([1]; base MDA model): 19.4 L | lower V4 (MDA peripheral volume of distribution) ([1]; female compared to male subjects): 18% | Body weight effect on CLM, Bootstrap median ([1]; final MDA model): 0.585 | Body weight effect on CLM, estimate ([1]; final MDA model): 0.580 | Body weight effect on QM, Bootstrap median ([1]; final MDA model): 1.02 | Body weight effect on QM, estimate ([1]; final MDA model): 1.00 | CLM, Bootstrap median ([1]; final MDA model): 83.9 L/h | CLM, final model estimate ([1]; final MDA model): 79.6 L/h | Sex effect on V4, Bootstrap median ([1]; final MDA model): −0.18 | V4, Bootstrap median ([1]; final MDA model): 213 L | V4, final model estimate ([1]; final MDA model): 213 L

CNC(C)Cc1ccc2c(c1)OCO2 (centres unmarked) [MDMA, 3,4-methylenedioxymethamphetamine]
genotoxicity in vivo (male rats): no signs of genotoxicity | mean prostate gland weights (male and female rats; all MDMA-treated males relative to controls): decreased | fertility and reproductive performance (male and female rats; oral, up to the highest dose evaluated (10 mg/kg/day)): No effect on fertility and reproductive performance | higher MDMA AUC0-44 relative to reference individual [1, 3]: 30% | higher MDMA Cmax relative to reference individual [1, 3]: 30% | lower MDMA AUC0-44 relative to reference individual [1, 4]: 28% | lower MDMA Cmax relative to reference individual [1, 4]: 25% | Cmax MDMA, post hoc Geo. mean ([1]; MPKF Fasted 120 mg (N = 16)): 246.0 ng/mL | Cmax MDMA, post hoc Geo. mean ([1]; MPKF Fed 120 mg (N = 14)): 197.3 ng/mL | Post Hoc Absorption Rate, Geo. mean (Geo. CV %) ([1]; MPKF Fed (N = 14), high fat meal): 0.6 (50.2) 1/h | Post Hoc Absorption Rate, Geo. mean (Geo. CV %) ([1]; MPKT Fasted (N = 16)): 3.5 (47.0) 1/h | Duration of zero order absorption, D1, post hoc Geo. mean ([1]; MPXF (N =16)): 0.4 h | Half-life MDMA, t½, post hoc Geo. mean ([1]; MPXF (N =16)): 8.7 h | MDMA Apparent Volume of Distribution, V, post hoc Geo. mean ([1]; MPXF (N =16)): 368.3 L | Lag time, ALAG [1, 2]: 0.3 h | time to complete clearance (5 half-lives) ([1]; assumed): 38.5 to 43.5 h | ALAG1, base model estimate ([1]; base MDMA model): 0.312 h | CL/F, base model estimate ([1]; base MDMA model): 38.3 L/h | D1, base model estimate ([1]; base MDMA model): 0.242 h | IIV on D1 ([1]; base MDMA model): 159 | IIV on Ka ([1]; base MDMA model): 55.9 | IIV on V2/F ([1]; base MDMA model): 28.5 | V2/F, base model estimate ([1]; base MDMA model): 444 L | ka, base model estimate ([1]; base MDMA model): 1.14 h⁻¹ | ALAG1, Bootstrap median ([1]; final MDMA model): 0.323 h | ALAG1, final model estimate ([1]; final MDMA model): 0.322 h | Body weight effect on V2/F, Bootstrap median ([1]; final MDMA model): 0.884 | Body weight effect on V2/F, estimate ([1]; final MDMA model): 0.885 | CL/F, Bootstrap median ([1]; final MDMA model): 41.8 L/h | CL/F, final model estimate ([1]; final MDMA model): 41.5 L/h | D1, Bootstrap median ([1]; final MDMA model): 0.271 h | D1, final model estimate ([1]; final MDMA model): 0.304 h | Fasted status effect on KA, Bootstrap median ([1]; final MDMA model): 1.08 | Fasted status effect on KA, estimate ([1]; final MDMA model): 1.93 | Fed status effect on KA, Bootstrap median ([1]; final MDMA model): −0.496 | Fed status effect on KA, estimate ([1]; final MDMA model): −0.484 | IIV on D1 ([1]; final MDMA model): 153 | IIV on KA ([1]; final MDMA model): 60.2 | IIV on V2/F ([1]; final MDMA model): 19.9 | Study effect on V2/F, Bootstrap median ([1]; final MDMA model): −0.267 | Study effect on V2/F, estimate ([1]; final MDMA model): −0.263 | V2/F, Bootstrap median ([1]; final MDMA model): 461 L | V2/F, final model estimate ([1]; final MDMA model): 462 L | ka, Bootstrap median ([1]; final MDMA model): 1.17 h⁻¹ | ka, final model estimate ([1]; final MDMA model): 1.17 h⁻¹ | lower Ka ([1]; subjects fed a high fat diet): 49% | bound to plasma proteins in humans (human plasma proteins): 51% | inhibition of OAT3 (OAT3): not an inhibitor | inhibition of OATP1B1 (OATP1B1): not an inhibitor | substrate of OATP1B3 (OATP1B3): not a substrate
